# Molecular target: T1, ZnT1 binding to GluN2A C-terminal peptide sequences (Mus musculus, UniProt Q60738)
# T1 construct: made in house; peptides: Fmoc spot synthesis on nitrocellulose
# T1 sequence (Q60738 1-503): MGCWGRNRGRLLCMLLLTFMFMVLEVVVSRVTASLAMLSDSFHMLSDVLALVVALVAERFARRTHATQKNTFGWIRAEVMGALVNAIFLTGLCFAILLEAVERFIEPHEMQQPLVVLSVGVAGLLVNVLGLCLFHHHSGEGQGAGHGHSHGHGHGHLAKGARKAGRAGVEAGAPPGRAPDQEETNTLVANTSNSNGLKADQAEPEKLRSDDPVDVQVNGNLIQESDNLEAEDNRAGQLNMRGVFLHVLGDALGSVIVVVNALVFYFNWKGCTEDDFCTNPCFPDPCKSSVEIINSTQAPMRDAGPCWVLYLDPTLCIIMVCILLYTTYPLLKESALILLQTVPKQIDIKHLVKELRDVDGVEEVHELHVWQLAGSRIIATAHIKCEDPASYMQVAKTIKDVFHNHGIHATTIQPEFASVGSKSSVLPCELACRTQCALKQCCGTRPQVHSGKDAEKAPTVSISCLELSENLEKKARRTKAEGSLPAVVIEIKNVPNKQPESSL
# Assay: Peptide spot array repeated in the presence of N2AZ or scN2AZ
# Settings: 100 μM, compared to scN2AZ control
# Protocol: FIG. 2: N2AZ reduces ZnT1 binding to GluN2A C-terminal peptide sequences. Quantification of peptide spot arrays of GluN2A C-terminus region (residues 1390-1464) using the same peptide segments as FIG. 1B (Peptides 1-61 correspond to fragments of SEQ ID NO: 21, as listed in Table 1). […] Mean±SEM (n=4). (Inset) Representative peptide spot-array in scN2AZ (top) and N2AZ (bottom).
# Far-Western protein-binding affinity assays were performed as previously described (Brittain et al., 2011; Yeh et al., 2017) (Moutal et al., 2017). Peptide spot arrays (15 mers) spanning the proximal C-terminus residues 1390-1464 of mouse GluN2A (Uniprot# P35436) in overlapping 1 aa steps were constructed using the Spots-synthesis method. Standard 9-fluorenylmethoxy carbonyl (Fmoc) chemistry was used to synthesize the peptides and spot them onto nitrocellulose membranes pre-derivatized with a polyethylene glycerol spacer (Intavis). […] Finally, the membrane was incubated in secondary antibody for 45 minutes, washed 3 times for 5 minutes in TBST, and visualized by infrared fluorescence (Li-Cor). […]
# To study the effect of ZnT1 on NMDAR modulation, a peptide was designed to disrupt the ZnT1-GluN2A interaction. […] Next, the peptide spot arrays were probed with flag-tagged ZnT1-enriched cell lysates and ZnT1 binding was visualized and quantified with immunofluorescence against the flag tag (FIG. 1A). […]
sequence,measurement,value
NDSYLRSSL [Peptide N2AZ],ZnT1 binding to the spot array in the presence of peptide,significantly reduced
